# Results from PMC7260718, “Novel routes towards bioplastics from plants: elucidation of the methylperillate biosynthesis pathway from Salvia dorisiana trichomes” (Journal of Experimental Botany, 2020).
# Tests used:
# SdSaS = target: T1, SdSaS (Salvia dorisiana, UniProt A0A6G5RTE6); experiment: in vitro terpene synthase assay, GC-MS; format: cell-based; settings: product sabinene; conditions by reference to earlier study
# T1 construct: gene SaS; plastid targeting signal removed, pCDF-duet, E. coli
# T1 sequence (A0A6G5RTE6 1-538): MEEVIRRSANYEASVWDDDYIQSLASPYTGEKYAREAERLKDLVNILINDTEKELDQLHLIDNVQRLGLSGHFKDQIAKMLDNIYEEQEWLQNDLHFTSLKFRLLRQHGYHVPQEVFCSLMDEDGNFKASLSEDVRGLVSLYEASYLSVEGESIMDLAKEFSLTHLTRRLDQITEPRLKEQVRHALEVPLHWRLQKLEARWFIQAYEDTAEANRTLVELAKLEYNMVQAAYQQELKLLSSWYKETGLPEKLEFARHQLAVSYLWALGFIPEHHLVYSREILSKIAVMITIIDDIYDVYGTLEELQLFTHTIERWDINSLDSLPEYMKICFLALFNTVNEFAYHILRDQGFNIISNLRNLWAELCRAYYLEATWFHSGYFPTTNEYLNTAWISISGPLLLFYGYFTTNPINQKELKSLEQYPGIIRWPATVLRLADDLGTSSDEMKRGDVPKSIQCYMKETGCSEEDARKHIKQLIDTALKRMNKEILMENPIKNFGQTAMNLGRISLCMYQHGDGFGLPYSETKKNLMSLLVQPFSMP
# SdPCS = target: T2, SdPCS (Salvia dorisiana, UniProt A0A6G5RV47); experiment: in vitro terpene synthase assay, GC-MS; format: cell-based; settings: products alpha-pinene and camphene; conditions by reference to earlier study
# T2 construct: gene PCS; plastid targeting signal removed, pCDF-duet, E. coli
# T2 sequence (A0A6G5RV47 52-589): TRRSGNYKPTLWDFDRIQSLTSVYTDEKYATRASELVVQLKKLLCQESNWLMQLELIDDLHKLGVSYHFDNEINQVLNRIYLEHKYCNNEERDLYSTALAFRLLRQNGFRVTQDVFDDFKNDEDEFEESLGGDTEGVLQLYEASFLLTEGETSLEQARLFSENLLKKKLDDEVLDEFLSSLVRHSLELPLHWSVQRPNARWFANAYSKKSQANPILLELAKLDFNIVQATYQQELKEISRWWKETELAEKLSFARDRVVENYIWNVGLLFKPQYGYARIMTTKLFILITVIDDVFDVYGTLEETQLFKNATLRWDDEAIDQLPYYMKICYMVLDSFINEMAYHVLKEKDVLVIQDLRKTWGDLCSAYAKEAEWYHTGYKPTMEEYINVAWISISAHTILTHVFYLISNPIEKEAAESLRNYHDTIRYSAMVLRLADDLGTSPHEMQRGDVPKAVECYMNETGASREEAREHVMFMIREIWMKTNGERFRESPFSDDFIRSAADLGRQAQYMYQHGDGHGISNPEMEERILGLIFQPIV
# SdLiS = target: T3, SdLiS (Salvia dorisiana, UniProt A0A6G5RUG7); experiment: in vitro terpene synthase assay, GC-MS; format: cell-based; settings: product linalool; conditions by reference to earlier study
# T3 construct: gene LiS; plastid targeting signal removed, pCDF-duet, E. coli
# T3 sequence (A0A6G5RUG7 55-582 limits assumed): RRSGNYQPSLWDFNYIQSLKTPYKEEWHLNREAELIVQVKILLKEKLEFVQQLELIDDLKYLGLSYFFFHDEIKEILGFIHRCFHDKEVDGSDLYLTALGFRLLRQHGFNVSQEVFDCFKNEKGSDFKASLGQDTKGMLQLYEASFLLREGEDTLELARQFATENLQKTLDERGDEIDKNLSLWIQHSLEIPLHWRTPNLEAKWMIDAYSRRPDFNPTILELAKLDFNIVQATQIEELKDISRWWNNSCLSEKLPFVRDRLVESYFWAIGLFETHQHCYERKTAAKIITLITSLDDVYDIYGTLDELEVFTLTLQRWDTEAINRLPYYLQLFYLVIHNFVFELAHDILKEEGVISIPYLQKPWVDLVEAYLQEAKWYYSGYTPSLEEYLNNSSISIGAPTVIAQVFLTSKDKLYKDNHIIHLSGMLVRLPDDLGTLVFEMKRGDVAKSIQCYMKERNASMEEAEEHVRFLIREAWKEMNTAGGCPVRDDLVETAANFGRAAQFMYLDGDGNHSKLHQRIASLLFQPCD
# SdPS = target: T4, SdPS (Salvia dorisiana, UniProt A0A6G5RTD3); experiment: in vitro terpene synthase assay, GC-MS; format: cell-based; settings: product beta-pinene; conditions by reference to earlier study
# T4 construct: gene PS; plastid targeting signal removed, pCDF-duet, E. coli
# T4 sequence (A0A6G5RTD3 60-600): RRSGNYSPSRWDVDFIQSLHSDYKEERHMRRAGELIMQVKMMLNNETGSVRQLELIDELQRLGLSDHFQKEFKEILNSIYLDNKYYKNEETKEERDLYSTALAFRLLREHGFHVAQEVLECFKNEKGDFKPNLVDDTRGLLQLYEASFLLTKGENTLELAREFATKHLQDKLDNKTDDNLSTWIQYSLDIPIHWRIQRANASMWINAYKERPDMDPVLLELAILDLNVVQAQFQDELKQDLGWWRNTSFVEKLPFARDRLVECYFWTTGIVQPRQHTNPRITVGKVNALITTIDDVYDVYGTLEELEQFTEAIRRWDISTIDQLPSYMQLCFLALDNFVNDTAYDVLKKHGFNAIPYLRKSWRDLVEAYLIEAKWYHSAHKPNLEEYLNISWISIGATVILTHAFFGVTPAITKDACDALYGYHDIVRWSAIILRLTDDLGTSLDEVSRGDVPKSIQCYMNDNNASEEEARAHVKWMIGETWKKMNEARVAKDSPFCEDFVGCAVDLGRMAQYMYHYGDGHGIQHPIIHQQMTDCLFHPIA
# SdEuS = target: T5, SdEuS (Salvia dorisiana, UniProt A0A6G5RUA2); experiment: in vitro terpene synthase assay, GC-MS; format: cell-based; settings: product eucalyptol; conditions by reference to earlier study
# T5 construct: gene EuS; plastid targeting signal removed, pCDF-duet, E. coli
# T5 sequence (A0A6G5RUA2 55-578): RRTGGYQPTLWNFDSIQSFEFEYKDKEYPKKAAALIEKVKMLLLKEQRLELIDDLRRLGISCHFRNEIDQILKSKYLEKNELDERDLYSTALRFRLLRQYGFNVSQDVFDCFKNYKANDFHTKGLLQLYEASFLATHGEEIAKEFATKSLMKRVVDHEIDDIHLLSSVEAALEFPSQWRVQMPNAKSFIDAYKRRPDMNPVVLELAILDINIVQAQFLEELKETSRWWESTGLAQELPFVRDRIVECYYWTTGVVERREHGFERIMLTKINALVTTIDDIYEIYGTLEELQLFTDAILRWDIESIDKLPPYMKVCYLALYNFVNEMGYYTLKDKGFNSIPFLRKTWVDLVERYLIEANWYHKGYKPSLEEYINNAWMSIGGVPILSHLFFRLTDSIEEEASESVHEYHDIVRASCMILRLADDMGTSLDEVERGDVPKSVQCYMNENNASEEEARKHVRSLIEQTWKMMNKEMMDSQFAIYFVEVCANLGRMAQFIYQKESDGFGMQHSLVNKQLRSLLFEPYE
# SdPOHDH = target: T6, SdPOHDH (Salvia dorisiana, UniProt A0A6G5RUH8); experiment: LC-MS of perillyl aldehyde markers; settings: N. benthamiana leaves infiltrated with 400 µM perillyl alcohol, 4 h
# T6 construct: gene POHDH; transient expression in Nicotiana benthamiana leaves (pB7WG2)
# T6 sequence (A0A6G5RUH8 1-370): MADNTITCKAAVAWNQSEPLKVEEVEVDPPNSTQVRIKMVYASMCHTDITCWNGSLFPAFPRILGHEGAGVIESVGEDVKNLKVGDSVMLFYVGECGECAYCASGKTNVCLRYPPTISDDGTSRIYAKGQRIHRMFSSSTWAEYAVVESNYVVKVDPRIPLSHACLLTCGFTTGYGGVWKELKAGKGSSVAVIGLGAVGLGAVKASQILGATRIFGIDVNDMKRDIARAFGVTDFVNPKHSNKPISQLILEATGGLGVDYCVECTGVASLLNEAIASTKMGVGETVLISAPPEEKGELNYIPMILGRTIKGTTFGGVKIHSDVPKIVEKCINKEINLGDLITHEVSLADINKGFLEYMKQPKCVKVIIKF
# SdL7H = target: T7, SdL7H (Salvia dorisiana, UniProt A0A6G5RTT4); experiment: GC-MS of perillyl alcohol in culture extract; format: cell-based; settings: yeast co-expressing limonene synthase, 30 °C, 96 h; also N. benthamiana with SdLS
# T7 construct: gene L7H; expressed in Saccharomyces cerevisiae (limonene-producing strain Sc-PftLS) from pTEF plasmid; also in Nicotiana benthamiana
# T7 sequence (A0A6G5RTT4 1-494): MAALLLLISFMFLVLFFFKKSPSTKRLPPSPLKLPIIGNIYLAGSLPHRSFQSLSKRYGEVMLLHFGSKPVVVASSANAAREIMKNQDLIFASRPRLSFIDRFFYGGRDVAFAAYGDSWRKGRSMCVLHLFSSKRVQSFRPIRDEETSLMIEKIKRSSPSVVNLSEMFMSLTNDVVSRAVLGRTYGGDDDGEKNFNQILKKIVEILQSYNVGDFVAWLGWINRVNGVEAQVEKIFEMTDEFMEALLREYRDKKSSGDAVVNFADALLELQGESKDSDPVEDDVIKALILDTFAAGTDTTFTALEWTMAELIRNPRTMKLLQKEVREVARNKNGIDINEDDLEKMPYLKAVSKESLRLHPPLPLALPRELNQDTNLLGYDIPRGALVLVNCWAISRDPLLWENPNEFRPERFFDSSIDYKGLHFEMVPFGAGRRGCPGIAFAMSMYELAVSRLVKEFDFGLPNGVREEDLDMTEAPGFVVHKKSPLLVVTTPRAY
# SdPAOMT = target: T8, SdPAOMT (Salvia dorisiana, UniProt A0A6G5RV57); experiment: GC-MS of methyl ester product; format: biochemical; settings: E. coli cell-free extract; 1 mM substrate, 1.28 mM SAM (from stocks), Tris-HCl pH 7.0, room temperature, 1 h
# T8 construct: gene PAOMT; full length, pCDF-duet, E. coli BL21(DE3) cell-free extract
# T8 sequence (A0A6G5RV57 1-359): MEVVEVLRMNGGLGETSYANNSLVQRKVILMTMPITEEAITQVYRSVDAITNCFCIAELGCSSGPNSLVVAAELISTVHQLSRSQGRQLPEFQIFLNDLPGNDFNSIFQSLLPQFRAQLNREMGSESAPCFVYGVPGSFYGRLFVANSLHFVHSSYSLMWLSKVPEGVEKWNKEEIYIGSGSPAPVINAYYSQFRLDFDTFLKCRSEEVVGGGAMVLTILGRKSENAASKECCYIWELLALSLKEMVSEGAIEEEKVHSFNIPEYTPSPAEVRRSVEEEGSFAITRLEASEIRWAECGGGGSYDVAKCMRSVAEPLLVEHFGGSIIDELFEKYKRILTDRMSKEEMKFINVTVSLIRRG
# SdOMT9 = target: T9, SdOMT9 (Salvia dorisiana, UniProt A0A6G5RTF7); experiment: headspace GC-MS of methylperillate; settings: N. benthamiana leaves co-infiltrated with perillic acid; minor activity
# T9 construct: gene OMT9; transient expression in Nicotiana benthamiana leaves
# T9 sequence (A0A6G5RTF7 1-344): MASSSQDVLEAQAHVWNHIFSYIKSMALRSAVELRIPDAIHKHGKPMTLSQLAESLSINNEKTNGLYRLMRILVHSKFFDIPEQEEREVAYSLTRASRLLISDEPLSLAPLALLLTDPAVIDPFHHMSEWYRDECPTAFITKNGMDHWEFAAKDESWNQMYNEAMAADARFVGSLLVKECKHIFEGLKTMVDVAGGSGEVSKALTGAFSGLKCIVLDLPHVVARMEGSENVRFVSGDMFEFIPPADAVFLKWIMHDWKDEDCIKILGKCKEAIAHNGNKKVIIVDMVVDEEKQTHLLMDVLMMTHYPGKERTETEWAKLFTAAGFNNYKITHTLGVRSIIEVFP
# SdOMT4 = target: T10, SdOMT4 (Salvia dorisiana, UniProt A0A6G5RUB3); experiment: headspace GC-MS of methylperillate; settings: N. benthamiana leaves co-infiltrated with perillic acid; minor activity
# T10 construct: gene OMT4; transient expression in Nicotiana benthamiana leaves
# T10 sequence (A0A6G5RUB3 1-349): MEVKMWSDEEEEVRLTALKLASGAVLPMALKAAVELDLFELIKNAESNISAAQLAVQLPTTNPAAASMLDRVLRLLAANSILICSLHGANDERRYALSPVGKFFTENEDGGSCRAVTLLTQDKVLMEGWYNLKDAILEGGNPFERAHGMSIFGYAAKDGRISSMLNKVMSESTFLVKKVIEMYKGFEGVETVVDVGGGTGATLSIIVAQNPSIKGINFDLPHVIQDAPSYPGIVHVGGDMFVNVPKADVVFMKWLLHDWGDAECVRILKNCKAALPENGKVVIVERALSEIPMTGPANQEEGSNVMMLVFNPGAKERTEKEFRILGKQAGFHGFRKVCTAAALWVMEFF
smiles,measurement,setting,value
CC(C)=CCC/C(C)=C/COP(=O)(O)OP(=O)(O)O [geranyl diphosphate],"in vitro terpene synthase assay, GC-MS",SdSaS,a sabinene synthase SdSaS
same,"in vitro terpene synthase assay, GC-MS",SdPCS,an α-pinene/camphene synthase SdPCS
same,"in vitro terpene synthase assay, GC-MS",SdLiS,a linalool synthase SdLiS
same,"in vitro terpene synthase assay, GC-MS",SdPS,"characterized by in vitro assays, including a β-pinene synthase SdPS"
same,"in vitro terpene synthase assay, GC-MS",SdEuS,a eucalyptol synthase SdEuS
C=C(C)[C@@H]1CC=C(CO)CC1 [perillyl alcohol],LC-MS of perillyl aldehyde markers,SdPOHDH,SdPOHDH converted POH to PAldH
C=C(C)[C@@H]1CC=C(C)CC1 [limonene],GC-MS of perillyl alcohol in culture extract,SdL7H,indicating that limonene is indeed used as a substrate
O=C(O)c1ccccc1O [salicylic acid],GC-MS of methyl ester product,SdPAOMT,Methylated products were detected for all three substrates
C=C(C)[C@@H]1CC=C(C(=O)O)CC1 [perillic acid],headspace GC-MS of methylperillate,SdOMT9,only SdOMT4 and SdOMT9 showed minor MePA formation
same,headspace GC-MS of methylperillate,SdOMT4,only SdOMT4 and SdOMT9 showed minor MePA formation
same,GC-MS of methyl ester product,SdPAOMT,"Cell-free extracts were tested with BA, SA, and PA as substrates, and SAM as methyl donor"
